Measured values taken from paper PMC5290327, “SC83288 is a clinical development candidate for the treatment of severe malaria” (Nature Communications, 2017).
“And” between values parts separate entries of the source, which are not always exact repeats. Equal entries are not always repeated. “Also recorded” adds a separate entry of the source.

What was measured:
V1a (h) = target: T1, V1a (h) (Homo sapiens, UniProt P37288); assay: Radioligand binding
T1 construct: Cerep (contract screening)

[1] = In vitro metabolism in liver microsomes; conditions: mouse liver microsomes, 10 μM
[2] = In vitro metabolism in liver microsomes; conditions: monkey liver microsomes, 10 μM
Na+ channel (site 2) = assay: Radioligand binding
A1 (h) = target: T2, A1 (h) (Homo sapiens, UniProt P30542); assay: Radioligand binding
T2 construct: Cerep (contract study)

Plasmodium berghei [3] = assay: Rodent malaria model; assay type: in vivo; conditions: P. berghei, 30 mg kg-1 i.p. 1x4 days
Description: (§1) This was the case for both an in vivo 4 day dosing regimen of 30 mg kg^−1 per day and an ex vivo one-cycle growth inhibition assay. […] Differential therapeutic efficacy in various rodent model systems is a well-established phenomenon and is typically associated with charged compounds, such as positively charged amidines and negatively charged phosphoric acid or carboxylic acid containing drugs. The phenomenon is explained based on selective uptake of charged compounds through parasite-induced channels, termed new permeation pathways, in the host cell plasma membrane and species-specific characteristics of the new permeation pathways.

5-HT6 (h) = target: T3, 5-HT6 (h) (Homo sapiens, UniProt P50406); assay: Radioligand binding
T3 construct: Cerep (contract screening)

CYP2D6 = CYP2D6 (Homo sapiens, UniProt P10635); assay: CYP inhibition, human liver microsomes; conditions: CYP2D6, dextromethorphan to O-desmethyldextromethorphan, 10 µM
Plasmodium vinckei = assay: Rodent malaria model; assay type: in vivo
Source text: The two SC compounds were also active in the Plasmodium vinckei rodent malaria model system.

[4] = target: T4, norepinephrine transporter (h) (Homo sapiens, UniProt P23975); assay: Radioligand binding
T4 construct: Cerep (contract screening)

d2 (DOP) (h) = target: T5, d2 (DOP) (h) (Homo sapiens, UniProt P41143); assay: Radioligand binding
T5 construct: Cerep

CYP1A2 = CYP1A2 (Homo sapiens, UniProt P05177); assay: CYP inhibition, human liver microsomes; conditions: CYP1A2, melatonin to 6-OH-melatonin, 10 µM
5-HT1A (h) = target: T6, 5-HT1A (h) (Homo sapiens, UniProt P08908); assay: Radioligand binding
T6 construct: Cerep

P. falciparum strain D10 = assay: Growth inhibition assay; assay type: cell-based; conditions: Plasmodium falciparum
[5] = system: Ca2+ channel (L, verapamil site); assay: Radioligand binding
Description: (§2) The study was carried out by Cerep (Celle l'Evescault, France). An in vitro pharmacological profiling panel was designed to detect potential high-risk clinical adverse drug reactions. The panel comprised of 54 targets.
(§3) The specific ligand binding to the receptors was defined as the difference between the total binding and the non-specific binding determined in the presence of an excess of unlabelled ligand. Results were expressed as a per cent of control specific binding and as a per cent inhibition of control specific obtained in the presence of the test compounds. Results showing an inhibition (or stimulation) >50% were considered to represent significant effects of the test compounds. […] The IC50 values were determined by non-linear regression analysis of the competition curves generated with mean replicate values using Hill equation curve fitting. The inhibition constants (Ki) were calculated using the Cheng Prusoff equation.

a1 (non-selective) = assay: Radioligand binding
Description: as §2, §3

sst (non-selective) = assay: Radioligand binding
Description: as §2, §3

5-HT2B (h) = target: T7, 5-HT2B (h) (Homo sapiens, UniProt P41595); assay: Radioligand binding
T7 construct: Cerep (contract screening)
Description: as §2, §3

a2 (non-selective) = assay: Radioligand binding
Description: as §2, §3

Plasmodium berghei [6] = assay: Ex vivo one-cycle growth inhibition assay; assay type: cell-based
Description: as §1

b2 (h) = target: T8, b2 (h) (Homo sapiens, UniProt P30411); assay type: binding
T8 construct: Cerep (contract study)

hERG channel = target: T9, hERG channel (Homo sapiens, UniProt Q12809); assay: hERG profiling, whole cell patch-clamp; assay type: cell-based
T9 construct: expressed in transfected cells; host or cells: HEK 293
Description: A HEK 293 cell line (Sigma Aldrich, catalogue number: 85120602) constitutively expressing the hERG channel in the membrane was used for the assay. The cells were cultured in MEM with Earle's salts and L-glutamine (10% FCS, non-essential amino acids, 300 μg ml^−1 Geneticin (G418)) and kept at 37 °C and under 5% CO2. Cells were routinely split every 3–4 days at a 1:5–1:10 ratio. The electrophysiological measurements were performed using the whole cell patch-clamp method. Extracellular bath solution contained 137 mM NaCl, 4 mM KCl, 1 mM MgCl2, 1.8 mM CaCl2, 10 mM glucose, 10 mM HEPES (pH 7.4 with NaOH), the intracellular pipette solution 130 mM KCl, 1 mM MgCl2, 5 mM MgATP, 5 mM EGTA and 10 mM HEPES (pH 7.2 with KOH). To assess the effects of SC81458 and SC83288 on the current through the hERG channel, a 1,500 ms of conditioning voltage pulse was applied every 20 s by the holding membrane potential (−80 mV) is carried out to +40 mV followed by a 500 ms test pulse of +40 mV to −40 mV. The amplitude of the current peak induced by the test pulse was determined at equilibrium (I0) and after (Idrug) addition of the substance. After the application of the substance, the cells were rinsed with extracellular bath solution until a complete recovery of the current occurred; otherwise, the cells were replaced with new ones.

[7] = P. vinckei, 30 mg kg-1 i.p. 1x4 days

T9 sequence (Q12809 whole entry): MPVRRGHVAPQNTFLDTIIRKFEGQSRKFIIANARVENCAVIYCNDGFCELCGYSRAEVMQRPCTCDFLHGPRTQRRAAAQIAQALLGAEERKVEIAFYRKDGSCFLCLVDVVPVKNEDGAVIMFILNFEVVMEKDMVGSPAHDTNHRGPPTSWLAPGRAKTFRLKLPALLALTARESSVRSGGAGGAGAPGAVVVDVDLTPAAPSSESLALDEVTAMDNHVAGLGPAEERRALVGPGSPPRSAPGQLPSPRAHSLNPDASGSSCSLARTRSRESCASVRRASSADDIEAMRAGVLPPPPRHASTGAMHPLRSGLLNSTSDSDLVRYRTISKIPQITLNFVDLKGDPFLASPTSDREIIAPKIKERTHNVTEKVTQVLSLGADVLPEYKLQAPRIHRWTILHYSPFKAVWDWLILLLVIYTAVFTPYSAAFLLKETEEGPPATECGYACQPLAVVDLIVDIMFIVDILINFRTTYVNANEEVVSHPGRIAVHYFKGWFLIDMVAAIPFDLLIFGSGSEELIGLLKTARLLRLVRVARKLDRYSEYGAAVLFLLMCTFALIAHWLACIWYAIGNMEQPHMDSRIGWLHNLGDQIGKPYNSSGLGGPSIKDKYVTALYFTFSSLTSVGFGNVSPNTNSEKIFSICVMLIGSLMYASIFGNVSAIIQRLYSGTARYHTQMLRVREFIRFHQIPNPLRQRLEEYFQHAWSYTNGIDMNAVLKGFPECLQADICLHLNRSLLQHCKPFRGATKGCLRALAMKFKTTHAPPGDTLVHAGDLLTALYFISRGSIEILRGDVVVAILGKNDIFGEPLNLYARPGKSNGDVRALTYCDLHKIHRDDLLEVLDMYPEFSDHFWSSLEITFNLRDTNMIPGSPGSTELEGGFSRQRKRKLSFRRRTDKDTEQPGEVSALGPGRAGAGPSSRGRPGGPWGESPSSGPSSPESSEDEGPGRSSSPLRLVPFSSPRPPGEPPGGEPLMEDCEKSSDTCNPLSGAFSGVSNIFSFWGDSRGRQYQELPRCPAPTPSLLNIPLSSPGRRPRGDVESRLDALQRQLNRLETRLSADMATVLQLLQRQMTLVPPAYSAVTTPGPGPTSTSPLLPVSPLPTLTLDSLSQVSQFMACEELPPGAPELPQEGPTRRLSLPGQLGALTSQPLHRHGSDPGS
T2 sequence (P30542 whole entry): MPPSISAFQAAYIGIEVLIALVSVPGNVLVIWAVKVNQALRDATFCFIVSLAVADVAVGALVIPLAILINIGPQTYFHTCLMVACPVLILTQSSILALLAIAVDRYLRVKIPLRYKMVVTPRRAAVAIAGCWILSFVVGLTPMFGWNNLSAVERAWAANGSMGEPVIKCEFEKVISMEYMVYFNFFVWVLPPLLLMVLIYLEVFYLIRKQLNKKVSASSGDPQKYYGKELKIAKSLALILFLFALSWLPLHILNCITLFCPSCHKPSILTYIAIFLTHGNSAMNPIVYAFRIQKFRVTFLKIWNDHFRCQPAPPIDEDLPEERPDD
T8 sequence (P30411 whole entry): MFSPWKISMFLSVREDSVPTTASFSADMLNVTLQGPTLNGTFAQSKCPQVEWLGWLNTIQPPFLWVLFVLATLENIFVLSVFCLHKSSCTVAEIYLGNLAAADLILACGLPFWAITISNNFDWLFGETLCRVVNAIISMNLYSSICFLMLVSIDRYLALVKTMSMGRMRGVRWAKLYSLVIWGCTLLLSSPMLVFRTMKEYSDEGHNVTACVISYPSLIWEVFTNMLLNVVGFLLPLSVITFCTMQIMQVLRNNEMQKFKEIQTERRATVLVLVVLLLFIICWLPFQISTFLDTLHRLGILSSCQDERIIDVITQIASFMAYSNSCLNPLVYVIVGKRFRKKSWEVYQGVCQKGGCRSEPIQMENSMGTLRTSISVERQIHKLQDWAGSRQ
T4 sequence (P23975 whole entry): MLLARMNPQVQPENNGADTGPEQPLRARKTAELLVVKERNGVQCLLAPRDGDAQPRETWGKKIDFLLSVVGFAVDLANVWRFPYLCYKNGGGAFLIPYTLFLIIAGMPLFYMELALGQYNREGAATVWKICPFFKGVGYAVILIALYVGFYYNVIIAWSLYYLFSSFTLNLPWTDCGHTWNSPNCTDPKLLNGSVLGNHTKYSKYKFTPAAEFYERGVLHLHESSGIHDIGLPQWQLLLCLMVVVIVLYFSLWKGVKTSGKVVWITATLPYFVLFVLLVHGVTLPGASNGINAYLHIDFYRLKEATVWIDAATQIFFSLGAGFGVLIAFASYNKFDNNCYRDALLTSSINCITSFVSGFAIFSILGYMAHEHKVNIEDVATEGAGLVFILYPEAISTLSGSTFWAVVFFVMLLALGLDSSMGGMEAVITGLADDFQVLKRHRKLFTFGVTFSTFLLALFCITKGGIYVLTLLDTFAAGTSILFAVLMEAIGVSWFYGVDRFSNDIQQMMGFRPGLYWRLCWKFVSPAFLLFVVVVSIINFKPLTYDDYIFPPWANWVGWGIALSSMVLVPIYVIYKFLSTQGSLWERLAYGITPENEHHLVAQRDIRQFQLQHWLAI
T7 sequence (P41595 whole entry): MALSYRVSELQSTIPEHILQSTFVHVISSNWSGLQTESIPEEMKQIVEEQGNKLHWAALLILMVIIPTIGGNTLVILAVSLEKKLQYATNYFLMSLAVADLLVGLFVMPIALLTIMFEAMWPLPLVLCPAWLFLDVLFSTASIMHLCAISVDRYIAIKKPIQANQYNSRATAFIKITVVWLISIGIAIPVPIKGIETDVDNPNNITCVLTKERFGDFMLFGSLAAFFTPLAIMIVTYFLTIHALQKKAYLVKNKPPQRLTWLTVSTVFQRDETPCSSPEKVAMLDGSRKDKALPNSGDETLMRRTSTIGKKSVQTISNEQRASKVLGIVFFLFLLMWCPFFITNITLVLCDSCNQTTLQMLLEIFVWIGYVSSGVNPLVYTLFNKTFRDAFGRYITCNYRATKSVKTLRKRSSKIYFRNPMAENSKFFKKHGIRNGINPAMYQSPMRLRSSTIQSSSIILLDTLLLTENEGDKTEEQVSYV
T1 sequence (P37288 whole entry): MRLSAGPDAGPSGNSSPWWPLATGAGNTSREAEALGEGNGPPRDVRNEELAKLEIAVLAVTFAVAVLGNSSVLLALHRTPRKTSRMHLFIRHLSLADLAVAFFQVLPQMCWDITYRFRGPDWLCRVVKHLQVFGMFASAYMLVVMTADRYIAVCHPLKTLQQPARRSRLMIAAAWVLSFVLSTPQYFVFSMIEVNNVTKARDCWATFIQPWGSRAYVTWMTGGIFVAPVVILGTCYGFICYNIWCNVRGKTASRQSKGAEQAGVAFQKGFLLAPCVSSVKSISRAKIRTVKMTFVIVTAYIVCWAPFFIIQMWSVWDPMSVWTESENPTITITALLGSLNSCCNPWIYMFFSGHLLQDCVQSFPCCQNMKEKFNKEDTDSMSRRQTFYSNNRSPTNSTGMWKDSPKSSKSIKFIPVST
CYP1A2, sequence (P05177 whole entry): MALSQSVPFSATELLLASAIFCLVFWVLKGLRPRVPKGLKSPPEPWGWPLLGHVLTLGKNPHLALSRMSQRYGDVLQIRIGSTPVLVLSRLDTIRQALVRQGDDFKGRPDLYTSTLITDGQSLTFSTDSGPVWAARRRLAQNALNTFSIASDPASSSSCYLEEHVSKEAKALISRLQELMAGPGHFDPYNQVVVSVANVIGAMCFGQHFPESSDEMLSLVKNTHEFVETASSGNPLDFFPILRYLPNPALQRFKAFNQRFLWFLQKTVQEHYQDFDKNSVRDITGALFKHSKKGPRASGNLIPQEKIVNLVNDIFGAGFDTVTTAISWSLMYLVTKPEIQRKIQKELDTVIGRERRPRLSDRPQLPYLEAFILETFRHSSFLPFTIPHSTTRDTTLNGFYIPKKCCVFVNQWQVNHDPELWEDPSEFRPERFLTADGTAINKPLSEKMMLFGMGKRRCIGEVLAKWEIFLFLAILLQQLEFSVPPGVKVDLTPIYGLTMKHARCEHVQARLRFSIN
T3 sequence (P50406 whole entry): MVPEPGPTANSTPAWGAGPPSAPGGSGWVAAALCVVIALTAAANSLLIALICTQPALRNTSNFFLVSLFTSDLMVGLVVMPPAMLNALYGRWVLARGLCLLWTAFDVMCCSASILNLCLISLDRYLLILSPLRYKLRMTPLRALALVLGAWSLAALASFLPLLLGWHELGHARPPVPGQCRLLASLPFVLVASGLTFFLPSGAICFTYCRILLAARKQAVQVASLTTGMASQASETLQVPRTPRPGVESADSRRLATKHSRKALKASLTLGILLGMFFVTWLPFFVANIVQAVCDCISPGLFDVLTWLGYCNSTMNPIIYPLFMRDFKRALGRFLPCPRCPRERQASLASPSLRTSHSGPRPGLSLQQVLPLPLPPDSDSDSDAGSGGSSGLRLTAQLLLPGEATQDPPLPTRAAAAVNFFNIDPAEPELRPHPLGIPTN
T5 sequence (P41143 whole entry): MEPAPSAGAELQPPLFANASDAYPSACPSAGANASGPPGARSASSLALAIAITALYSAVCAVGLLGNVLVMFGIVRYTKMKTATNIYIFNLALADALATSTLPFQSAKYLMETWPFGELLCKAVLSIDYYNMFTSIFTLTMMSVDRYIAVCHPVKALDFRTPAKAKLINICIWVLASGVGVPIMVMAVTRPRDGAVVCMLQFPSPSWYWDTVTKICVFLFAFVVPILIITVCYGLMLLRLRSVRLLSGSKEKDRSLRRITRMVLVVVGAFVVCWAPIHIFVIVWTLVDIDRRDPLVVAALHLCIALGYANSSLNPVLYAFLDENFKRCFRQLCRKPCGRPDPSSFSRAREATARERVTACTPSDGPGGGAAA

SMILES | Inhibition of control specific binding (V1a (h)) [%] | remaining after 60 min of incubation [1] [%] | remaining after 60 min of incubation [2] | Inhibition of control specific binding (Na+ channel (site 2)) [%] | Inhibition of control specific binding (A1 (h)) [%] | Outcome (Plasmodium berghei [3]) | Inhibition of control specific binding (5-HT6 (h)) [%] | Remaining enzyme activity (CYP2D6) [%] | Inhibition of control specific binding [4] [%] | Inhibition of control specific binding (d2 (DOP) (h)) [%] | Remaining enzyme activity (CYP1A2) [%] | Inhibition of control specific binding (5-HT1A (h)) [%] | IC50 (P. falciparum strain D10) [nM] | Inhibition of control specific binding [5] [%] | Inhibition of control specific binding (a1 (non-selective)) [%] | Inhibition of control specific binding (sst (non-selective)) [%] | Inhibition of control specific binding (5-HT2B (h)) [%] | Inhibition of control specific binding (a2 (non-selective)) [%] | activity, ex vivo one-cycle growth inhibition assay (Plasmodium berghei [6]) | Inhibition of control specific binding (b2 (h)) [%] | further results
CCCCN1CCN(C(=N)c2cccc(NC(=O)Nc3ccc(S(=O)(=O)NCc4ccc(S(N)(=O)=O)cc4)cc3)c2)CC1 [SC81458, 4-(3-(3-((4-butylpiperazin-1-yl)(imino)methyl)phenyl)ureido)-N-(4-sulfamoylbenzyl) benzenesulfonamide] | -1 | 54 | almost completely metabolized | 45 | 7 | inactive | -2 | 107 | 73 | 10 | 95 | 2 | 9 ± 4 | 17 | 21 | -2 | 37 | 21 | inactive | 7 | parasitemia in treated mice at day 5 (Plasmodium vinckei; 30 mg kg^−1 per day for 4 days): 3.3%; Outcome (Plasmodium vinckei; [7]): rescrudescence; also recorded: all treated mice died of a recrudescent parasitemia; Outcome: decrease of parasitemia (Plasmodium vinckei; [7]): > 90% and 97%; hERG activity retained (hERG channel; 60 μM): > 90%
COC(=O)N1CCN(C(=N)c2cccc(NC(=O)Nc3ccc(S(=O)(=O)NCc4ccc(S(N)(=O)=O)cc4)cc3)c2)CC1 [SC83288, methyl 4-(imino(3-(3-(4-(N-(4-sulfamoylbenzyl)sulfamoyl)phenyl)ureido)phenyl)methyl) piperazine-1-carboxylate] | 11 | 96 | 51% | 19 | 8 | inactive | 11 | 91 | 59 | 1 | 97 | 15 | 5 ± 1 | 14 | 9 | 4 | 17 | 14 | inactive | -4 | Outcome (Plasmodium vinckei; P. vinckei, 20 mg kg-1 i.p. 1x4 days): complete clearance, no recrudescence; also recorded: fully cured the infection; hERG activity retained (hERG channel; 20 μM): > 90%; hERG channel remaining active (hERG channel; 100 μM): 50%
